Data as given in article PMC11937066, “Abemaciclib in combination with therapies for patients with metastatic breast cancer: a phase 1b study” (Frontiers in Oncology, 2025).
Where two headings read alike, the source gives them in different places.

Experiments:
[1] = tested on: PIK3CA-mutated, HR+, HER2- ABC; set-up: method as in doi:10.1158/1538-7445.SABCS23-GS03-13; details: with fulvestrant and palbociclib, first-line treatment; cited from earlier work
[2] = tested on: HR+ advanced breast cancer; set-up: method as in PMID 32887722; details: in combination with ribociclib and fulvestrant; cited from earlier work
[3] = tested on: patients with HR+, HER2- or HER2+ metastatic breast cancer; experiment: Patient disposition and dose adjustments; details: Part G, with abemaciclib and fulvestrant
[4] = Plasma pharmacokinetics, noncompartmental analysis (LC-MS/MS); type: in vivo, human
Experimental: In parts E, F, and H, PK sampling was performed for all analytes pre-dose on Cycle 1 Day 1, Cycle 1 Day 15, and Cycle 2 Day 1, as well as at 1, 2, 4, 6, 8, and 10 hours after dosing on Cycle 1 Day 1 and Cycle 2 Day 1. In Part H, PK sampling was performed for all analytes pre-dose on Cycle 1 Day 1, Cycle 1 Day 15, and Cycle 2 Day 1, as well as at 1, 2, 4, 6, 8, and 10 hours after dosing on Cycle 1 Day 1 and 2, 4, 6, 8, and 10 hours after dosing on Cycle 2 Day 1. In Parts F and H, additional samples were drawn pre-dose on Day 1 of Cycles 3–5 and after trastuzumab infusion on Day 1 of Cycles 1–5. In part H, additional samples were also drawn after pertuzumab infusion on Day 1 Cycle 4 and 5. In Part G, an additional pre-dose sample was drawn on Cycle 3 Day 1, and fulvestrant samples were obtained pre-dose on Day 1 of Cycles 1–3 and Day 15 of Cycle 1.
Samples were analyzed for abemaciclib (and its metabolites), exemestane, everolimus, fulvestrant, LY3023414, and pertuzumab using a validated liquid chromatography-tandem mass spectrometry method (abemaciclib and metabolites: Q^2 solutions, Ithaca, NY, USA; exemestane and everolimus: BASi, West Lafayette, IN, USA; fulvestrant: Charles River Laboratories, Montreal, Quebec, Canada; LY3023414: Covance Laboratories Inc, Madison, WI, USA; pertuzumab: Altasciences Company Inc., Quebec, Canada). Trastuzumab was analyzed using a validated Gyrolab xP method (PPD, Richmond, VA, USA).
Standard noncompartmental PK parameters were computed using Phoenix WinNonlin 64 Build 8.0/8.1 (Pharsight Corporation, Mountain View, CA, USA). This analysis included estimation of Cmax, tmax, Clast, tlast, and AUC0-tlast. AUC calculations were performed using the log linear trapezoidal method.

[5] = tested on: HER2+ breast cancer; details: abemaciclib combined with fulvestrant and trastuzumab versus standard of care chemotherapy plus trastuzumab; cited from earlier work

Structure (SMILES): C[C@H](Nc1ccc2c(c1)OCCn1cc(N3C(=O)OC[C@H]3C(F)F)nc1-2)C(N)=O [inavolisib]
- Progression-free survival [1]: statistically significant improvement

Structure (SMILES): Cc1nc(NC(=O)N2CCC[C@H]2C(N)=O)sc1-c1ccnc(C(C)(C)C(F)(F)F)c1 [alpelisib]
- Feasibility of the combination [2]: not to be feasible due to toxicity

Structure (SMILES): CO[C@@H](C)Cn1c(=O)n(C)c2cnc3ccc(-c4cncc(C(C)(C)O)c4)cc3c21 [LY3023414]
- Additional patients who discontinued LY3023414 due to AEs [3]: two
- LY3023414 dose adjustments ([3]; 12 patients): 10 patients
- LY3023414 dose omission ([3]; 12 patients): eight
- LY3023414 dose reduction ([3]; 12 patients): seven

Structure (SMILES): Nc1cc(C(F)(F)F)c(-c2cc(N3CCOCC3)nc(N3CCOCC3)n2)cn1 [buparlisib]
- Feasibility of the combination [2]: not to be feasible due to toxicity

Structure (SMILES): CCN1CCN(Cc2ccc(Nc3ncc(F)c(-c4cc(F)c5nc(C)n(C(C)C)c5c4)n3)nc2)CC1 [abemaciclib]
- mean accumulation ratio (based on Cmax) ([4]; Part E Cohort 1, abemaciclib 150 mg Q12H with exemestane + everolimus): 3.16
- mean AUC0-tlast ([4]; Part E Cohort 1, multiple doses abemaciclib 150 mg Q12H with exemestane + everolimus): 3280 hr^*ng/mL
- mean AUC0-tlast ([4]; Part E Cohort 1, single dose abemaciclib 150 mg with exemestane + everolimus): 771 hr^*ng/mL
- mean AUC0-tlast ([4]; Part E Cohort 2, single dose abemaciclib 200 mg with exemestane + everolimus): 984 hr^*ng/mL
- accumulation ratio based on Cmax ([4]; Part F, abemaciclib 150 mg Q12H with trastuzumab): 2.13
- mean AUC0-tlast ([4]; Part H, single dose abemaciclib 100 mg with trastuzumab and pertuzumab): 343 hr^*ng/mL
- Effect on the pharmacokinetics of the combination study drugs ([4]; Parts E–H): no effect
- Abemaciclib exposures compared with monotherapy PK data ([4]; all combination therapies tested): consistent with monotherapy PK data
- Cmax ([4]; human, plasma, oral, 100 mg, Part H, single dose abemaciclib 100 mg with trastuzumab and pertuzumab, read-out: mean Cmax): 0.0715 µg/mL
- Cmax ([4]; human, plasma, oral, 150 mg, Part E Cohort 1, multiple doses abemaciclib 150 mg Q12H with exemestane + everolimus, read-out: mean Cmax): 0.452 µg/mL
- Cmax ([4]; human, plasma, oral, 150 mg, Part E Cohort 1, single dose abemaciclib 150 mg with exemestane + everolimus, plasma, read-out: mean Cmax): 0.157 µg/mL
- Cmax ([4]; human, plasma, oral, 150 mg, Part F, abemaciclib 150 mg Q12H with trastuzumab, read-out: steady-state mean Cmax): 0.242 µg/mL
- Cmax ([4]; human, plasma, oral, 200 mg, Part E Cohort 2, single dose abemaciclib 200 mg with exemestane + everolimus, plasma, read-out: mean Cmax): 0.191 µg/mL
- Cmax ([4]; human, plasma, oral, Part F, single dose abemaciclib (150 mg or 200 mg) with trastuzumab, range over dose cohorts, read-out: mean Cmax): 0.133 to 0.148 µg/mL
- Cmax ([4]; human, plasma, oral, Part G, single dose 150 mg abemaciclib with 500 mg fulvestrant and 100 mg or 150 mg LY3023414, range over cohorts, read-out: abemaciclib mean Cmax): 0.131 to 0.139 µg/mL
- AUC(0-t) ([4]; human, plasma, oral, Part F, abemaciclib 150 mg Q12H with trastuzumab, read-out: steady-state mean AUC0-tlast): 1.66 µg·h/mL
- Progression-free survival [5]: significantly improved
